From ChEMBL document CHEMBL5046315, “CRCM5484: A BET-BDII Selective Compound with Differential Anti-leukemic Drug Modulation” (J Med Chem, 2022)
The source made the active and inactive calls. The rule behind the calls is not given here.

Columns and labels:
[1] = biological target: T1, E3 ubiquitin-protein ligase TRIM33 (Homo sapiens) (UniProt Q9UPN9); experiment: Binding affinity to partial length human TRIM33 (D882 to A1087 residues) expressed in bacterial system at 1 uM by BROMOscan method relative to control
T1 sequence (whole entry): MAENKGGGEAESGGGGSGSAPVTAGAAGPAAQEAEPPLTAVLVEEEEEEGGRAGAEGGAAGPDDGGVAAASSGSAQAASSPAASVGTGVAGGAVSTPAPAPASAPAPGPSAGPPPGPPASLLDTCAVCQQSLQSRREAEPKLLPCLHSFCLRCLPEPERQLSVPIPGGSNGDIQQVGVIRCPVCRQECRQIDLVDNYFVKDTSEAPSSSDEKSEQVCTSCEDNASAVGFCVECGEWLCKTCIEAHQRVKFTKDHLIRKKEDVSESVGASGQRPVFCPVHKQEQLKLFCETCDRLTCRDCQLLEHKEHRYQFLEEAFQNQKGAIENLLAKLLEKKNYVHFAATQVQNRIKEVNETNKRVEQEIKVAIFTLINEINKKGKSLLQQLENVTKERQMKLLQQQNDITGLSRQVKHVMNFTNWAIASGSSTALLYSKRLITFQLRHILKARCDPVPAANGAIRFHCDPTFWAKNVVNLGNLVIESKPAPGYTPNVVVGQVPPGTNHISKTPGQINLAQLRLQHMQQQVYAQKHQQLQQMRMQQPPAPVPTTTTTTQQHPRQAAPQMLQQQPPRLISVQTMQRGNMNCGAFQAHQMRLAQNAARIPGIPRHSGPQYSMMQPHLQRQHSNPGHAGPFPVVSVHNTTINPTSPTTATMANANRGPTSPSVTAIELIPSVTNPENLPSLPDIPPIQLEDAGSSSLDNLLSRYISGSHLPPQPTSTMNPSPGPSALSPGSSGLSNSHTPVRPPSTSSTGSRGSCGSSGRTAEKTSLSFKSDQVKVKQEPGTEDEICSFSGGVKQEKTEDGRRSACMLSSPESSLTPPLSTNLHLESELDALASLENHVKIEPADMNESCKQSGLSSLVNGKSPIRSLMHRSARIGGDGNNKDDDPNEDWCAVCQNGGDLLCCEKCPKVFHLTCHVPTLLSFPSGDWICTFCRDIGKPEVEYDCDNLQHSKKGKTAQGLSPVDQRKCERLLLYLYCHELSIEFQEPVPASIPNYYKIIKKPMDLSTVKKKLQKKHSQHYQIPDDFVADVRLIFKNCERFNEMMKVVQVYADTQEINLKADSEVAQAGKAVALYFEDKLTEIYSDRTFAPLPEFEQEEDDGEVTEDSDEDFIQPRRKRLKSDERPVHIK

CCRF-CEM [2] = experiment: Potentiation of asparaginase-induced antileukemic activity against human CCRF-CEM cells at 4.3 uM in presence of bone-marrow derived stromal cell-conditioned medium; type: functional, cell-based
CCRF-CEM [3] = experiment: Potentiation of AT9283-induced antileukemic activity against human CCRF-CEM cells at 4.3 uM in presence of bone-marrow derived stromal cell-conditioned medium; type: functional, cell-based
CCRF-CEM [4] = experiment: Potentiation of carfilzomib-induced antileukemic activity against human CCRF-CEM cells at 4.3 uM in presence of bone-marrow derived stromal cell-conditioned medium; type: functional, cell-based
CCRF-CEM [5] = experiment: Potentiation of crenolatinib-induced antileukemic activity against human CCRF-CEM cells at 4.3 uM in presence of bone-marrow derived stromal cell-conditioned medium; type: functional, cell-based
CCRF-CEM [6] = experiment: Potentiation of daunorubicine-induced antileukemic activity against human CCRF-CEM cells at 4.3 uM in presence of bone-marrow derived stromal cell-conditioned medium; type: functional, cell-based
CCRF-CEM [7] = experiment: Potentiation of erlotinib-induced antileukemic activity against human CCRF-CEM cells at 4.3 uM in presence of bone-marrow derived stromal cell-conditioned medium; type: functional, cell-based
CCRF-CEM [8] = experiment: Potentiation of GSK2879552-induced antileukemic activity against human CCRF-CEM cells at 4.3 uM in presence of bone-marrow derived stromal cell-conditioned medium; type: functional, cell-based
CCRF-CEM [9] = experiment: Potentiation of idasanutlin-induced antileukemic activity against human CCRF-CEM cells at 4.3 uM in presence of bone-marrow derived stromal cell-conditioned medium; type: functional, cell-based
CCRF-CEM [10] = experiment: Potentiation of imatinib-induced antileukemic activity against human CCRF-CEM cells at 4.3 uM in presence of bone-marrow derived stromal cell-conditioned medium; type: functional, cell-based
CCRF-CEM [11] = experiment: Potentiation of luminespid-induced antileukemic activity against human CCRF-CEM cells at 4.3 uM in presence of bone-marrow derived stromal cell-conditioned medium; type: functional, cell-based
CCRF-CEM [12] = experiment: Potentiation of ponatinib-induced antileukemic activity against human CCRF-CEM cells at 4.3 uM in presence of bone-marrow derived stromal cell-conditioned medium; type: functional, cell-based
CCRF-CEM [13] = experiment: Potentiation of sunitinib-induced antileukemic activity against human CCRF-CEM cells at 4.3 uM in presence of bone-marrow derived stromal cell-conditioned medium; type: functional, cell-based
U-937 [14] = experiment: Potentiation of alisertib-induced antileukemic activity against human U-937 cells at 4.3 uM in presence of bone-marrow derived stromal cell-conditioned medium; type: functional, cell-based
U-937 [15] = experiment: Potentiation of cladribine-induced antileukemic activity against human U-937 cells at 4.3 uM in presence of bone-marrow derived stromal cell-conditioned medium; type: functional, cell-based
U-937 [16] = experiment: Potentiation of idasanutlin-induced antileukemic activity against human U-937 cells at 4.3 uM in presence of bone-marrow derived stromal cell-conditioned medium; type: functional, cell-based
U-937 [17] = experiment: Potentiation of MK2206-induced antileukemic activity against human U-937 cells at 4.3 uM in presence of bone-marrow derived stromal cell-conditioned medium; type: functional, cell-based
U-937 [18] = experiment: Potentiation of VX680-induced antileukemic activity against human U-937 cells at 4.3 uM in presence of bone-marrow derived stromal cell-conditioned medium; type: functional, cell-based
MOLM-14 [19] = experiment: Potentiation of AT9283-induced antileukemic activity against human MOLM-14 cells at 4.3 uM in presence of bone-marrow derived stromal cell-conditioned medium; type: functional, cell-based
MOLM-14 [20] = experiment: Potentiation of bortezomib-induced antileukemic activity against human MOLM-14 cells at 4.3 uM in presence of bone-marrow derived stromal cell-conditioned medium; type: functional, cell-based
MOLM-14 [21] = experiment: Potentiation of dexamethasone-induced antileukemic activity against human MOLM-14 cells at 4.3 uM in presence of bone-marrow derived stromal cell-conditioned medium; type: functional, cell-based
MOLM-14 [22] = experiment: Potentiation of GSK126-induced antileukemic activity against human MOLM-14 cells at 4.3 uM in presence of bone-marrow derived stromal cell-conditioned medium; type: functional, cell-based
MOLM-14 [23] = experiment: Potentiation of lapatinib-induced antileukemic activity against human MOLM-14 cells at 4.3 uM in presence of bone-marrow derived stromal cell-conditioned medium; type: functional, cell-based
MOLM-14 [24] = experiment: Potentiation of -nutlin 3-induced antileukemic activity against human MOLM-14 cells at 4.3 uM in presence of bone-marrow derived stromal cell-conditioned medium; type: functional, cell-based
MOLM-14 [25] = experiment: Potentiation of quizartinib-induced antileukemic activity against human MOLM-14 cells at 4.3 uM in presence of bone-marrow derived stromal cell-conditioned medium; type: functional, cell-based
MOLM-14 [26] = experiment: Potentiation of ruxolitinib-induced antileukemic activity against human MOLM-14 cells at 4.3 uM in presence of bone-marrow derived stromal cell-conditioned medium; type: functional, cell-based
MOLM-14 [27] = experiment: cells; conditions: Homo sapiens, MOLM-14, 72 h
Description: Cytotoxicity against human MOLM-14 cells assessed as reduction in cell viability incubated for 72 hrs

In the case of `CC(=O)N1CCc2c(sc3nc(SCC(=O)Nc4cccnc4C)n(Cc4ccco4)c(=O)c23)C1`, the Activity [1] is reported as 52%, the Activity (CCRF-CEM [2]) is reported as “inactive” and the Activity (CCRF-CEM [3]) is reported as “inactive”. For the same compound, the Activity (CCRF-CEM [4]) was “inactive”, the Activity (CCRF-CEM [5]) was “inactive” and the Activity (CCRF-CEM [6]) was “inactive”. The Activity (CCRF-CEM [7]) was “inactive”, the Activity (CCRF-CEM [8]) was “inactive” and the Activity (CCRF-CEM [9]) was “inactive”. For the same compound, the Activity (CCRF-CEM [10]) was “inactive”, the Activity (CCRF-CEM [11]) was “inactive” and the Activity (CCRF-CEM [12]) was “inactive”. For the same compound, the Activity (CCRF-CEM [13]) was “inactive”, the Activity (U-937 [14]) was “inactive” and the Activity (U-937 [15]) was “inactive”. For the same compound, the Activity (U-937 [16]) was “inactive”, the Activity (U-937 [17]) was “inactive” and the Activity (U-937 [18]) was “inactive”. The Activity (MOLM-14 [19]) was “inactive”, the Activity (MOLM-14 [20]) was “inactive” and the Activity (MOLM-14 [21]) was “inactive”. The Activity (MOLM-14 [22]) was “inactive”, the Activity (MOLM-14 [23]) was “inactive” and the Activity (MOLM-14 [24]) was “inactive”. The Activity (MOLM-14 [25]) was “inactive”, the Activity (MOLM-14 [26]) was “inactive” and the EC50 (MOLM-14 [27]) was 8.5 µM.
